According to paper PMC8194371 (Journal of medicinal chemistry, 2021):
pIC50: −log10 of the molar value. Converted amounts (≈) assume the structure as drawn. “And” between values parts separate entries of the source, which are not always exact repeats. Equal entries are not always repeated. Where two headings read alike, the source gives them in different places.

Assays:
[1] = system: Mtb strain CDC1551 dop::MycoMarT7 expressing pupGGE; experiment: Accumulation of pupylated proteins; type: cell-based, Mycobacterium tuberculosis
β5c of the human c-20S = β5c of the human c-20S (Homo sapiens, UniProt P28074); experiment: human constitutive proteasome β5c inhibition, suc-LLVY-AMC; type: biochemical; conditions: for SIapp IC50–β5c / IC50–Mtb20S: apparent selectivity index, rounded to three or fewer significant figures
β5i of the human i-20S = β5i of the human i-20S (Homo sapiens, UniProt P28062); type: biochemical
[2] = system: Mtb strain MHD1441 (H37Rv WT + pSCK1); type: cell-based, Mycobacterium tuberculosis; conditions: 0.1-33 μM, day 4
HepG2 cells = experiment: Viability of HepG2 cells; conditions: at 30 μM
Kinetic solubility = type: physicochemical; conditions: PBS buffer
Mtb20SOG = Mtb20SOG (Mycobacterium tuberculosis, UniProt P9WHT9); experiment: Mtb20SOG proteasome inhibition, suc-LLVY-AMC hydrolysis; type: biochemical; conditions: Mtb20S IC50, text values
Sequence of Mtb20SOG (P9WHT9 58-291): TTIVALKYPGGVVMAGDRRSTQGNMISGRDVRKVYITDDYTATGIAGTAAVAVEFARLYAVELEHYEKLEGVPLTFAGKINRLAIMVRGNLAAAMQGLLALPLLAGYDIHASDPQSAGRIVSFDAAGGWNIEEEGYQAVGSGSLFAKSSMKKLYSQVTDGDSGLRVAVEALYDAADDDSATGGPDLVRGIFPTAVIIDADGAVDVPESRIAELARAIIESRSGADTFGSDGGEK

| SMILES | SIapp IC50–β5c / IC50–Mtb20S (β5c of the human c-20S) | SIapp IC50–β5i / IC50–Mtb20S (β5i of the human i-20S) | further results |
| --- | --- | --- | --- |
| CC(C)C[C@H](NC(=O)[C@H](CCc1ccccc1)NC(=O)CN1CCOCC1)C(=O)N[C@@H](Cc1ccccc1)C(=O)N[C@@H](CC(C)C)C(=O)[C@@]1(C)CO1 [Carfilzomib, reference compound] |  |  | accumulation of pupylated proteins [1]: led to accumulation of pupylated proteins |
| O=C1CCCCCCCCCC[C@@H](C(=O)NCc2cccc3ccccc23)NC(=O)[C@H](CC(=O)N2CCCC2)N1 [Macrocycle 2] | >674 | >674 |  |
| O=C1CCCCCCCCC[C@@H](C(=O)NCc2cccc3ccccc23)NC(=O)[C@H](CC(=O)N2CCCC2)N1 [Macrocycle 3] | >141 | >141 |  |
| O=C1CCCCCCCCOC[C@@H](C(=O)NCc2cccc3ccccc23)NC(=O)[C@H](CC(=O)N2CCCC2)N1 [Macrocycle 4] | >984 | >984 |  |
| O=C1CCc2cccc(c2)Oc2ccc(cc2)C[C@@H](C(=O)NCc2ccccc2F)NC(=O)[C@H](CC(=O)N2CCCC2)N1 [Macrocycle 5] | >500 |  |  |
| O=C1CCc2cccc(c2)Oc2ccc(cc2)C[C@@H](C(=O)NCc2ccccc2F)NC(=O)[C@H](CC(=O)N2CCC[C@@H]2c2ccccc2)N1 [Macrocycle 6] | >13,600 | >13,600 | selectivity for Mtb20S over human c-20S (β5c of the human c-20S): > 13,600 fold and > 10,000 fold; selectivity for Mtb20S over human i-20S (β5i of the human i-20S): > 13,600 fold and > 10,000 fold; Pup-GFP accumulation (RFU normalized by OD) [2]: dose-dependent increase of RFU; accumulation of pupylated proteins ([1]; macrocycle 6 at 1, 3, or 10 μM for 48 h, CFZ at 50 μM): dose-dependently promoted the accumulation of pupylated proteins; cytotoxicity toward HepG2 (HepG2 cells): no appreciable cytotoxicity |
| O=C1CCCCCCCCOC[C@@H](C(=O)NCc2ccccc2F)NC(=O)[C@H](CC(=O)N2CCC[C@@H]2c2ccccc2)N1 [Macrocycle 9] | >14,000 | >14,000 | solubility at 24 h (Kinetic solubility; pH 6.8): 1.4 µg/mL (≈ 2.35 µM); solubility at 24 h (Kinetic solubility; pH 6.8, aqueous buffer, kinetic from dmso stock): < 1.4 µg/mL |
| O=C1CCc2cccc(c2)OCCCC[C@@H](C(=O)NCc2ccccc2F)NC(=O)[C@H](CC(=O)N2CCC[C@@H]2c2ccccc2)N1 [Macrocycle 10] | >14,400 | >14,400 | selectivity for Mtb20S over human c-20S (β5c of the human c-20S): > 14,400 fold; selectivity for Mtb20S over human i-20S (β5i of the human i-20S): > 14,400 fold; Pup-GFP accumulation (RFU normalized by OD) [2]: dose-dependent increase of RFU; cytotoxicity toward HepG2 (HepG2 cells): no appreciable cytotoxicity |
| O=C1CCc2cccc(c2)OCCCC[C@@H](C(=O)NCc2ccccc2F)NC(=O)[C@H](CC(=O)N2CCC[C@@H]2C2CC2)N1 [Macrocycle 11] |  |  | pIC50 (Mtb20SOG): 8.19 |
